These are literature values, as cited in PMC11705955, “Lack of activity of HIV-1 integrase strand-transfer inhibitors on recombinase activating gene (RAG) activity at clinically relevant concentrations” (Microbiology Spectrum, 2024).

The target in data set [1] is RAG1. To be noted: biolayer interferometry; read-out: Dissociation constant from RAG1; cited from earlier work. A general note: In BLI a coated tip is dipped into the sample, and binding shifts an interference pattern.
Data set [2] relates to T or B cells. To be noted: cited from earlier work.
In data set [3] the test system is murine RAG1/RAG2. Further details: method as in PMID 11756686. To be noted: read-out: IC50 on RAG1/RAG2 in vitro; cited from earlier work.

`COc1cc2c(cc1Cc1cccc(Cl)c1F)c(=O)c(C(=O)O)cn2[C@H](CO)C(C)C` [EVG, elvitegravir]: the Kd in data set [1] was 32.5 µM. In addition, the “Effect on T or B cells in treated mice” value in data set [2] is reported as “did not show a large decrease in T or B cells”.

For the molecule `O=C(/C=C(\O)c1nnn[nH]1)c1c[nH]c2ccc(Cl)cc12` [p8, 5-CITEP], the IC50 in data set [3] is 200 µM.
